Columns and labels:
Details in all cases: 72 h
[1] = tested on: HepG2; test: drug sensitivity score (DSS) for viability; higher = more toxic; extreme values may be limits of the assay
[2] = tested on: Vero E6; test: as above
[3] = tested on: Calu-3; test: as above
[4] = tested on: Caco-2; test: as above
[5] = tested on: HepG2; test: relative viability EC50 (midpoint between 100% and the lowest measured viability); higher = less toxic
[6] = tested on: Vero E6; test: as above
[7] = tested on: Calu-3; test: as above
[8] = tested on: HepG2; test: cell viability relative to DMSO; higher = less toxic
[9] = tested on: Vero E6; test: as above
[10] = tested on: Calu-3; test: as above
[11] = tested on: Caco-2; test: as above
[12] = tested on: Caco-2; test: relative viability EC50 (midpoint between 100% and the lowest measured viability); higher = less toxic
[13] = tested on: U2OS; test: drug sensitivity score (DSS) for viability; higher = more toxic; extreme values may be limits of the assay
[14] = tested on: U2OS; test: relative viability EC50 (midpoint between 100% and the lowest measured viability); higher = less toxic
[15] = tested on: U2OS; test: cell viability relative to DMSO; higher = less toxic

| Compound | drug sensitivity score [1] | drug sensitivity score [2] | drug sensitivity score [3] | drug sensitivity score [4] | relative viability EC50 [5] | relative viability EC50 [6] | relative viability EC50 [7] | cell viability ([8]; 1 nM) | cell viability ([8]; 10 nM) | cell viability ([8]; 100 nM) | cell viability ([8]; 1000 nM) | cell viability ([8]; 10000 nM) | cell viability ([9]; 1 nM) | cell viability ([9]; 10 nM) | cell viability ([9]; 100 nM) | cell viability ([9]; 1000 nM) | cell viability ([9]; 10000 nM) | cell viability ([10]; 1 nM) | cell viability ([10]; 10 nM) | cell viability ([10]; 100 nM) | cell viability ([10]; 1000 nM) | cell viability ([10]; 10000 nM) | cell viability ([11]; 1 nM) | cell viability ([11]; 10 nM) | cell viability ([11]; 100 nM) | cell viability ([11]; 1000 nM) | cell viability ([11]; 10000 nM) | relative viability EC50 [12] | drug sensitivity score [13] | relative viability EC50 [14] | cell viability ([15]; 1 nM) | cell viability ([15]; 10 nM) | cell viability ([15]; 100 nM) | cell viability ([15]; 1000 nM) | cell viability ([15]; 10000 nM) |
| --- | --- | --- | --- | --- | --- | --- | --- | --- | --- | --- | --- | --- | --- | --- | --- | --- | --- | --- | --- | --- | --- | --- | --- | --- | --- | --- | --- | --- | --- | --- | --- | --- | --- | --- | --- |
| CN(c1ncccc1CNc1nc(Nc2ccc3c(c2)CC(=O)N3)ncc1C(F)(F)F)S(C)(=O)=O | 9 | 5.1 | 2.8 | 3.9 | 1.46 µM | 1.64 µM | 3.74 µM | 108% | 113% | 108% | 74.1% | 7.9% | 98.5% | 101% | 87.8% | 83.9% | 41.5% | 108% | 104% | 100% | 108% | 39.5% | 105% | 111% | 107% | 91.5% | 53.1% | – | – | – | – | – | – | – | – |
| O=C(NCCCCCCNC(=O)ON=C1CCCCC1)ON=C1CCCCC1 | 0 | 0 | 0 | 0 | > 10 µM | > 10 µM | > 10 µM | 99.2% | 104% | 100% | 94.6% | 93.9% | 98.8% | 103% | 99.5% | 100% | 105% | 98.4% | 95.9% | 108% | 98.8% | 99.6% | 105% | 98.1% | 98.3% | 103% | 102% | > 10 µM | – | – | – | – | – | – | – |
| O=S1(=O)N[C@H]2CCCN2c2ccccc21 | 0.1 | 0 | 0 | 0 | > 10 µM | > 10 µM | > 10 µM | 96.8% | 99.3% | 89.7% | 104% | 86.7% | 101% | 100% | 98% | 89.5% | 96.7% | 93.3% | 106% | 108% | 104% | 101% | 100% | 96.7% | 88.4% | 104% | 113% | > 10 µM | – | – | – | – | – | – | – |
| CC1(C)CCC(C)(C)c2cc(C(=O)Nc3ccc(C(=O)O)cc3)ccc21 [AM-580] | 0 | 0 | 7.7 | 0 | > 10 µM | > 10 µM | – | 92.6% | 101% | 101% | 102% | 97.3% | 103% | 106% | 102% | 101% | 96.5% | 89.5% | 83.4% | 71.6% | 77.3% | 81.6% | 95.5% | 99.1% | 98.1% | 95.6% | 93.9% | > 10 µM | 0 | > 10 µM | 100% | 96.7% | 95.6% | 90.5% | 95.6% |
| CC[C@H](CC#N)OC(=O)N[C@@H](C)c1cccc(NC(=O)Nc2ccc(-c3cnco3)c(OC)c2)c1 [AVN-944] | 11.5 | 8 | 9.1 | 9.1 | 0.464 µM | 1.06 µM | – | 89% | 106% | 101% | 37.6% | 29% | 97.8% | 108% | 103% | 67.6% | 30.2% | 97.6% | 92.9% | 88.7% | 57.3% | 58.2% | 102% | 94.1% | 93.6% | 54.8% | 48% | 0.319 µM | 10.7 | 0.707 µM | 105% | 101% | 102% | 45.2% | 22.2% |
| Cc1nnc(C[C@@H]2C=C(c3ccc(Cl)cc3)c3ccccc3-n3c(C)nnc32)o1 [BET-BAY-002] | 9.2 | 17.5 | 7.4 | 4.9 | 0.355 µM | 0.169 µM | – | 91% | 94.1% | 87% | 58.6% | 41.5% | 94.6% | 98% | 72.1% | 23.3% | 16.2% | 93.1% | 103% | 94.7% | 62.5% | 53.9% | 96.9% | 97.1% | 90.4% | 74.8% | 68.3% | – | 8.6 | 0.557 µM | 97.1% | 101% | 88.2% | 61.4% | 36.9% |
| CCCC[C@@H](NC(=O)[C@@H](Cc1cn(C(=O)OC)c2ccccc12)NC(=O)[C@H](CC(C)(C)C)NC(=O)N1[C@H](C)CCC[C@@H]1C)C(=O)O [BQ-788] | 0 | – | 0 | 0 | > 10 µM | – | > 10 µM | 89.9% | 88.1% | 104% | 107% | 101% | – | – | – | – | – | 98.9% | 98.3% | 112% | 106% | 97.2% | 102% | 104% | 96.1% | 106% | 104% | > 10 µM | 0 | > 10 µM | 97.1% | 90.1% | 95.8% | 105% | 99.8% |
| CCCCCCCCCCC(C)(C)C(=O)Nc1c(OC)cc(OC)cc1OC [CI-976] | 0 | – | 0 | 0 | > 10 µM | – | > 10 µM | 105% | 103% | 103% | 102% | 96.5% | – | – | – | – | – | 101% | 97.6% | 95.5% | 112% | 99.3% | 98.7% | 97.9% | 91.7% | 99.5% | 90.2% | > 10 µM | 0 | > 10 µM | 100% | 101% | 98.9% | 103% | 97.9% |
